Experiments:
CD235+ erythroblasts = test: CD235+ erythroblast differentiation of CD34+ HSPCs from DBA patient bone marrow; assay type: cell-based, human; conditions: DBA patient samples, 5 μM SD208
Method: FIG. 8. NLK inhibition increases expansion of erythroid progenitors from human and murine models of DBA. Human cord blood CD34+ progenitors were transduced with lentivirus co-expressing GFP with shRNA against luciferase (shLuc), RPS19 (shRPS19) or RPL11 (shRPL11). After 36 hours cells GFP+ cells were differentiated in erythroid media in the presence or absence of 5 μM SD208 for 15 days. Cells were counted and assessed for cell surface expression of CD235. (a) The percentage of CD235+ cells was multiplied by the cell count and values were compared as a percentage of untreated controls. (b) Normalizing values relative to untreated RPS19-insufficiency progenitors facilitates direct comparison of erythropoiesis between untreated and SD208-treated cultures. (c) Approximately 3000 cells were removed from differentiating treatments at day 6 and NLK activity was assessed. […] Values were expressed as a percentage relative to untreated controls (e) and directly comparing the effect of SD208 on erythropoiesis in ribosomal-insufficiency by expressing values relative to untreated ribosome-insufficient cultures (f). […] After counting the total cell population, the ratio of CD235+ erythroblasts was determined by flow cytometry and number of CD235+ erythroblasts calculated. This was expressed as a percentage of the average number of erythroid cells present in untreated healthy controls. […]

Solubility = assay type: physicochemical; conditions: data not shown
NLK = NLK expression and NLK activity in murine progenitors; assay type: cell-based, mouse; conditions: control, RPS19- or RPL11-insufficient mice, metformin
Source text: (§1) FIG. 11. […] Statistics: two-tailed Student's t test, significant *P<0.05

[1] = test system: zebrafish (Danio rerio) embryos; test: Zebrafish rps19 morpholino model, o-dianisidine hemoglobin staining; assay type: in vivo
Source text: as §1

zebrafish NLK 3′UTR = test: Luciferase fused to zebrafish NLK 3′UTR in K562 cells; assay type: cell-based; conditions: transient transfection in K562, metformin 72 hrs
miRNA species = test: miRNA expression by qRT-PCR in differentiating murine Lin-Kit+ progenitors; assay type: cell-based, mouse; conditions: metformin
Method: FIG. 14. Metformin-mediated upregulation of miR-26a in human progenitors suppresses NLK expression. (Panel A) Human CD34+ (upper) and murine Lin-Kit+ (lower) progenitors were differentiated for 8 days in the presence or absence of metformin and the levels of indicated miRNAs were assessed by qRT-PCR. (Panel B) K562 cells stably expressing the luciferase gene coupled to the NLK 3′UTR were mock transfected, transfected with indicated miRNA mimetics, or treated with metformin, and cultured in the presence or absence of metformin for 72 hrs. After lysis, luciferase activity was determined and endogenous NLK and GAPDH protein expression was analyzed by Western blot. (Panel C) K562 cells were mock transfected, or transfected with either miR-34 or miR-26 sponges, prior to being left untreated or treated with metformin for 72 hrs. Lysed cells were subjected to luciferase assay and western blotting to examine NLK and GAPDH protein expression. […] Statistics: two-tailed Student's t test, significant *P<0.05
MessengerRNA was quantified as described (5). MicroRNA was quantified using TaqMan® Small RNA Assays (Applied Biosystems) as per manufacturer's directions and normalized to snoRNA.

SATB1 3′UTR = test: Luciferase alone or fused to SATB1 3′UTR in K562 cells; assay type: cell-based, human; conditions: K562, 0.5-50 mM, 72 hrs
Method: FIG. 12. NLK 3′UTR facilitates metformin-mediated NLK suppression. (Panel A) K562 cells stabling expressing luciferase alone (top portion), luciferase expressed behind a minimal promoter and the NLK proximal promoter (2nd portion), luciferase immediately upstream of the human NLK 3′UTR (3rd portion) or luciferase with the SATB1 3′UTR (bottom portion) were grown in the presence of 0, 0.5, 5.0 or 50.0 mM of metformin for 72 hrs. Cell were pelleted and either processed for luciferase assay (left portion) or western blot analysis of endogenous NLK (upper right portion) or GAPDH (lower right portion). (Panel B) Luciferase immediately upstream of the human (upper), murine (middle) and zebrafish (lower) NLK 3′UTR were transiently transfected into human K562 (left) and cultured with indicated concentrations of metformin for 72 hrs. Lysates were assessed for luciferase activity and endogenous NLK and GAPDH protein expression by Western blotting. […] Statistics: two-tailed Student's t test, significant *P<0.05
In parallel with measuring luciferase activity, the response of endogenous NLK protein expression was monitored by Western blot analysis with a high degree of correlation.

Row | solubility (Solubility) | Structure (SMILES) | mean increase in erythroid expansion (CD235+ erythroblasts) [fold] | impact on NLK activity (NLK) | impact on NLK expression (NLK) | heart conditions ([1]; 20 mM metformin) | O'dianisidine (hemoglobin) staining ([1]; 20 mM metformin from 4 to 5 hpf, day 3) | decrease of luciferase activity, zebrafish 3′UTR (zebrafish NLK 3′UTR) [%] | upregulation of miRNA species (miRNA species) | metformin sensitivity of luciferase alone or fused with SATB1 3′UTR (SATB1 3′UTR)
1 | poor solubility | Fc1ccc(Cl)cc1-c1nc(Nc2ccncc2)c2nccnc2n1 [SD208] | 2.11 | – | – | – | – | – | – | –
2 | – | CN(C)C(=N)N=C(N)N [metformin] | – | no impact | no impact | persisted | dramatically restored | 43.6 | none of the miRNA species examined demonstrated significant upregulation | did not result in metformin sensitivity

Reference: patent US12403132B2, “Methods of treating bone marrow failure syndromes and compositions for use in the same” (The Board of Trustees of the Leland Stanford Junior …, priority 2020, dated 2025)
